According to ChEMBL document CHEMBL1909046, “DrugMatrix in vitro pharmacology data”:

What was measured:
[1] = target: Beta-1 adrenergic receptor (Homo sapiens, UniProt P08588); experiment: DRUGMATRIX: Adrenergic beta1 radioligand binding (ligand: [125I] Cyanopindolol); format: cell membranes, CHO-K1, Membrane; conditions: cho-k1; Not Active = under 50% inhibition at 10 µM
[2] = target: 5-hydroxytryptamine receptor 6 (Homo sapiens, UniProt P50406); format: cell membranes, HeLa, Membrane; conditions: hela; also: in other assays of this panel Not Active means under 50% inhibition at 10 µM
5-hydroxytryptamine receptor 6, sequence (P50406 whole entry): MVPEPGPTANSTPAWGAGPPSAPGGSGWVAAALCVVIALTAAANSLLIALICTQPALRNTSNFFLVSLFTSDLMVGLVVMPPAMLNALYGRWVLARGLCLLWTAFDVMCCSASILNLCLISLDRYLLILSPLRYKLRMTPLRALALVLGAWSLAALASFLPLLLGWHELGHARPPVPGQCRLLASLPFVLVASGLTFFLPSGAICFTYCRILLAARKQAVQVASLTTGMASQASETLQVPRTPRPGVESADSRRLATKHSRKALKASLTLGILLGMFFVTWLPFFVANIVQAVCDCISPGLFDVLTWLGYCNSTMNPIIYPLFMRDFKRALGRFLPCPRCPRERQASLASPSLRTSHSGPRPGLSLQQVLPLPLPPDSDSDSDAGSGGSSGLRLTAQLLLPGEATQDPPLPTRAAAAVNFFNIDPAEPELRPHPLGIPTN

[3] = target: T1, C-C chemokine receptor type 4 (Homo sapiens, UniProt P51679); format: cell membranes, Membrane; conditions: chem-1; also: in other assays of this panel Not Active means under 50% inhibition at 10 µM
T1 sequence (P51679 whole entry): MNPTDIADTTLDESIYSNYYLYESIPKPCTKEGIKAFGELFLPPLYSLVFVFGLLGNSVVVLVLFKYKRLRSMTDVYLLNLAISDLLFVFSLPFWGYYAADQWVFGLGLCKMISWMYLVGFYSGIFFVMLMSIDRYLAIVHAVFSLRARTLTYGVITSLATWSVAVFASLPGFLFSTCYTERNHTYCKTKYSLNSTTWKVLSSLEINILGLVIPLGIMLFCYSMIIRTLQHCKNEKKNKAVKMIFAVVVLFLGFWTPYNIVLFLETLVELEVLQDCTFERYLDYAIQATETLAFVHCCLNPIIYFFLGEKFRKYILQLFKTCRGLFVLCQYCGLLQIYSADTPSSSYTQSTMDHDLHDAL

[4] = target: Beta-3 adrenergic receptor (Homo sapiens, UniProt P13945); experiment: DRUGMATRIX: Adrenergic beta3 radioligand binding (ligand: [125I] Cyanopindolol); format: cell membranes, HEK293, Membrane; conditions: hek293; Not Active = under 50% inhibition at 10 µM
Beta-3 adrenergic receptor, sequence (P13945 whole entry): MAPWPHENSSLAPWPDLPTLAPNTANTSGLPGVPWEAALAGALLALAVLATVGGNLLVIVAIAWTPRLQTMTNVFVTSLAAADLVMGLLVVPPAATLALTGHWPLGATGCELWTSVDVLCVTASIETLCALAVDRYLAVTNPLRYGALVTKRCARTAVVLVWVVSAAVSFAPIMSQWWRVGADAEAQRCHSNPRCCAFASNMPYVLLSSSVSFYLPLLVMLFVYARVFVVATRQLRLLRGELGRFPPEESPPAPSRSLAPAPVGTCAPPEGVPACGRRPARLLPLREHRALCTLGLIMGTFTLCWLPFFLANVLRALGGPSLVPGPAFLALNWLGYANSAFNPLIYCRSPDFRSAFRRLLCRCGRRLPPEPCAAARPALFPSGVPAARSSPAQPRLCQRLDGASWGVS

[5] = target: T2, Alpha-2C adrenergic receptor (Homo sapiens, UniProt P18825); experiment: DRUGMATRIX: Adrenergic Alpha-2C radioligand binding (ligand: [3H] MK-912); format: cell membranes, Sf9, Membrane; conditions: sf9
T2 sequence (P18825 whole entry): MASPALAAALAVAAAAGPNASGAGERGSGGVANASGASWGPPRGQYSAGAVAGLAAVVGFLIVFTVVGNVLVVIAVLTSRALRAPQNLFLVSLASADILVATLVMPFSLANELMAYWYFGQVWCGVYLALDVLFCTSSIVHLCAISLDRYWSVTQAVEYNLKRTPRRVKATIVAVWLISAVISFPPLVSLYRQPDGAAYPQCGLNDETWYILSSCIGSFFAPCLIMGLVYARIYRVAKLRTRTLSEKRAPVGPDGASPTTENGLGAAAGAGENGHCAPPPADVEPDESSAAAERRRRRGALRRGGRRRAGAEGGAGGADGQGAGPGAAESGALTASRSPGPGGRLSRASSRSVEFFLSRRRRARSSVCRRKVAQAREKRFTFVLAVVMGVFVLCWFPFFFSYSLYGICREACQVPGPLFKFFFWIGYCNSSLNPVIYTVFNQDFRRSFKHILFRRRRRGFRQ

[6] = DRUGMATRIX: Calcium Channel Type L, Dihydropyridine radioligand binding (ligand: [3H] Nitrendipine); format: cell membranes, Rattus norvegicus, Wistar, Cerebral cortex, Membrane; conditions: Not Active = under 50% inhibition at 10 µM
[7] = DRUGMATRIX: Imidazoline I2, Central radioligand binding (ligand: [3H] Idazoxan); format: cell membranes, Rattus norvegicus, Wistar, Cerebral cortex, Membrane; conditions: Not Active = under 50% inhibition at 10 µM
[8] = target: T3, Glucocorticoid receptor (Homo sapiens, UniProt P04150); conditions: hela s3; also: in other assays of this panel Not Active means under 50% inhibition at 10 µM
T3 sequence (P04150 whole entry): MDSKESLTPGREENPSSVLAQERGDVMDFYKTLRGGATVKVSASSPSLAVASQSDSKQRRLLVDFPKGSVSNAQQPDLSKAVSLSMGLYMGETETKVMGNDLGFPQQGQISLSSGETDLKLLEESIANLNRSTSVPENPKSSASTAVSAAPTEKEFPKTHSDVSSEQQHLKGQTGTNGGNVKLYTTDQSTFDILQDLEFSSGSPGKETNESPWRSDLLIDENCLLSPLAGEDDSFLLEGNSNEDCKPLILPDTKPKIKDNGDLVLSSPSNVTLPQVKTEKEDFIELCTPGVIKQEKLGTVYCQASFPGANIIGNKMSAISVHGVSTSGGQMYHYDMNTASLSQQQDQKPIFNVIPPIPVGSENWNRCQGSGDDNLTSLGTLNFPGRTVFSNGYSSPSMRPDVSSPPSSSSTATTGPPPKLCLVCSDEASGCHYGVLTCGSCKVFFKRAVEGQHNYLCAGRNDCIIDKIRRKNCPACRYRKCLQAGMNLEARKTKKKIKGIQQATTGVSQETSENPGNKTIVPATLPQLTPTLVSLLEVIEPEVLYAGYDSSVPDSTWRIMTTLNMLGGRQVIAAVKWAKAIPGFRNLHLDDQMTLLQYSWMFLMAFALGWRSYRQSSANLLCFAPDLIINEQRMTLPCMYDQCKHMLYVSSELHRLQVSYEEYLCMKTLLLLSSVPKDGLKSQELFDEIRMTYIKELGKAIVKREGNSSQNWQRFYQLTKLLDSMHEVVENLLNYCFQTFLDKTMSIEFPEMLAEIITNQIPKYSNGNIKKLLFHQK

[9] = target: C-C chemokine receptor type 5 (Homo sapiens, UniProt P51681); format: cell membranes, Membrane; conditions: hek293; also: in other assays of this panel Not Active means under 50% inhibition at 10 µM
C-C chemokine receptor type 5, sequence (P51681 whole entry): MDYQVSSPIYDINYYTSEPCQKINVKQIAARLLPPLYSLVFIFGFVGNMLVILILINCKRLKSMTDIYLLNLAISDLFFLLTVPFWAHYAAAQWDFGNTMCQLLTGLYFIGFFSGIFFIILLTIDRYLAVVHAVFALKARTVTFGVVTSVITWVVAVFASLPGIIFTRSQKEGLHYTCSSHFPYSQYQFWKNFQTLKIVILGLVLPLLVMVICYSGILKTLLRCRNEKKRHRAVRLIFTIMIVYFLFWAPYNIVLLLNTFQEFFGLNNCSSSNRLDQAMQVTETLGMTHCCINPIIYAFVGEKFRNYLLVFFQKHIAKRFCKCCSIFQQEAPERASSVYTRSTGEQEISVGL

[10] = target: Carbonic anhydrase 2 (Homo sapiens, UniProt P00918); experiment: DRUGMATRIX: Carbonic Anhydrase II enzyme inhibition (substrate: 4-Nitrophenyl acetate (4-NPA)); format: tissue-based, Erythrocyte; conditions: erythrocyte; Not Active = under 50% inhibition at 10 µM
[11] = target: T4, Adenosine receptor A1 (Homo sapiens, UniProt P30542); format: cell membranes, CHO, Membrane; conditions: cho
T4 sequence (P30542 whole entry): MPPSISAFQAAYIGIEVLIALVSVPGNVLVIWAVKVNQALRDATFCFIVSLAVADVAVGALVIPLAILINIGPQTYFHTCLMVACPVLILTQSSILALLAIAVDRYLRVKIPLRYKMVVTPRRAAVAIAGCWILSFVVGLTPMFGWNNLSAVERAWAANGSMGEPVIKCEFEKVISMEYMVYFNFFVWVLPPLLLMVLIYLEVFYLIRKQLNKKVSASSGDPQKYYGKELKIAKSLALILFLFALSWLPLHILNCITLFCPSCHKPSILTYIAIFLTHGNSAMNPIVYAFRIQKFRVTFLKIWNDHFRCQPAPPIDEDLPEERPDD

[12] = target: Glycine receptor (Rattus norvegicus, UniProt P22771+P24524+P07727+P20781); format: cell membranes, Wistar, Spinal cord, Membrane; also: in other assays of this panel Not Active means under 50% inhibition at 10 µM

Beta-1 adrenergic receptor, sequence (P08588 whole entry): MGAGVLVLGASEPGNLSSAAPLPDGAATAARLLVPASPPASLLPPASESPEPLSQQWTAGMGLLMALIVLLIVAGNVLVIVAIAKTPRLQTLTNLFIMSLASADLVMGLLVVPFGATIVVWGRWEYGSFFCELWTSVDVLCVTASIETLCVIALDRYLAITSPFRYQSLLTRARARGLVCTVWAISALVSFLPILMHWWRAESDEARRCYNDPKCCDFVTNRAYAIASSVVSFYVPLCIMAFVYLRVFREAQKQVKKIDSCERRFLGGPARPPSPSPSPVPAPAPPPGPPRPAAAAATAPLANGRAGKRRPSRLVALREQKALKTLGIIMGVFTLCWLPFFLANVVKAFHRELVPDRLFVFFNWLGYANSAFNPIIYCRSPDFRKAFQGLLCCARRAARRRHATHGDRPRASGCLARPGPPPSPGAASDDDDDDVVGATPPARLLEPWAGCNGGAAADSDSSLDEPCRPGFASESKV

Structure (SMILES) | IC50 [1] | IC50 [2] | IC50 [3] | IC50 [4] | IC50 [5] | IC50 [6] | Ki [6] | IC50 [7] | Ki [7] | IC50 [8] | IC50 [9] | IC50 [10] | IC50 [11] | IC50 [12] | IC50 ([6]; read-out: IC50) [nM] | Ki ([6]; read-out: Ki) [nM] | IC50 ([7]; read-out: IC50) [nM] | Ki ([7]; read-out: Ki) [nM]
CN(C)[C@@H]1C(O)=C(C(N)=O)C(=O)[C@@]2(O)C(O)=C3C(=O)c4c(O)cccc4[C@@](C)(O)[C@H]3[C@H](O)[C@@H]12 [OXYTETRACYCLINE] | Not Active | Not Active | Not Active | Not Active | Not Active | Not Active | Not Active | Not Active | Not Active | Not Active | Not Active | Not Active | Not Active | Not Active |  |  |  | 
Fc1ccc([C@@H]2CCNC[C@H]2COc2ccc3c(c2)OCO3)cc1 [PAROXETINE] | Not Active | Not Active | Not Active | Not Active | Not Active |  |  | Not Active | Not Active | Not Active | Not Active | Not Active | Not Active | Not Active | 1480 | 949 |  | 
CC(C)(S)[C@@H](N)C(=O)O [PENICILLAMINE] | Not Active | Not Active | Not Active | Not Active | Not Active | Not Active | Not Active | Not Active | Not Active | Not Active | Not Active | Not Active | Not Active | Not Active |  |  |  | 
CC(=O)CCCCn1c(=O)c2c(ncn2C)n(C)c1=O [PENTOXIFYLLINE] | Not Active | Not Active | Not Active | Not Active | Not Active | Not Active | Not Active | Not Active | Not Active | Not Active | Not Active | Not Active | Not Active | Not Active |  |  |  | 
O=C1NC(=O)C(c2ccccc2)(c2ccccc2)N1 [PHENYTOIN] | Not Active | Not Active | Not Active | Not Active | Not Active | Not Active | Not Active | Not Active | Not Active | Not Active | Not Active | Not Active | Not Active | Not Active |  |  |  | 
CNC(=O)Oc1ccc2c(c1)[C@]1(C)CCN(C)[C@@H]1N2C [PHYSOSTIGMINE] | Not Active | Not Active | Not Active | Not Active | Not Active | Not Active | Not Active | Not Active | Not Active | Not Active | Not Active | Not Active | Not Active | Not Active |  |  |  | 
C=C(C)[C@@H]1[C@H]2OC(=O)[C@@H]1[C@]1(O)C[C@H]3O[C@]34C(=O)O[C@H]2[C@]14C [PICROTOXININ] | Not Active | Not Active | Not Active | Not Active | Not Active | Not Active | Not Active | Not Active | Not Active | Not Active | Not Active | Not Active | Not Active | Not Active |  |  |  | 
CN1C(C(=O)Nc2ccccn2)=C(O)c2ccccc2S1(=O)=O [PIROXICAM] | Not Active | Not Active | Not Active | Not Active | Not Active | Not Active | Not Active | Not Active | Not Active | Not Active | Not Active | Not Active | Not Active | Not Active |  |  |  | 
CCC1(c2ccccc2)C(=O)NCNC1=O [PRIMIDONE] | Not Active | Not Active | Not Active | Not Active | Not Active | Not Active | Not Active | Not Active | Not Active | Not Active | Not Active | Not Active | Not Active | Not Active |  |  |  | 
COc1ccc(CN(CCN(C)C)c2ccccn2)cc1 [PYRILAMINE] | Not Active | Not Active | Not Active | Not Active | Not Active | Not Active | Not Active |  |  | Not Active | Not Active | Not Active | Not Active | Not Active |  |  | 3340 | 2230
